Read-outs that look alike come from different tables or passages of the source.
Tests used:
CYP1A2 = biological target: T1, CYP1A2 (Homo sapiens, UniProt P05177); test: CYP1A2 inhibition in HLMs (phenacetin, cocktail, IC50 and IC50 shift); assay type: in vitro ADME
T1 construct: pooled HLMs (0.25 mg/mL); tissue XenoTech H2630; host or cells: pooled human liver microsomes, mixed gender
T1 sequence (P05177 1-516): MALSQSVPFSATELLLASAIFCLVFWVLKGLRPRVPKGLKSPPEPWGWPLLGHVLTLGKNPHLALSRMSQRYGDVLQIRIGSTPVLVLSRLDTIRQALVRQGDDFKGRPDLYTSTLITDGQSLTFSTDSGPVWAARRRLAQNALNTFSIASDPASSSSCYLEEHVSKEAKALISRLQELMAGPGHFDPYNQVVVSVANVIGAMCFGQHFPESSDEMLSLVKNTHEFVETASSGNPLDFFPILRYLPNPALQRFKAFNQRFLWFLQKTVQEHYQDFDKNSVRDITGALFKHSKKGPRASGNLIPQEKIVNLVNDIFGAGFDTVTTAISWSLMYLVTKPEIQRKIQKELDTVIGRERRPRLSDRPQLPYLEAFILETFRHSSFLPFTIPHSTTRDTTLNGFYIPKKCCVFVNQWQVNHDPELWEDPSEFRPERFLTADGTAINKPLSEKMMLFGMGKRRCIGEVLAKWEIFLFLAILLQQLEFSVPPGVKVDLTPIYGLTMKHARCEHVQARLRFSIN
Description: Lignans were first dissolved in methanol. […] All microsomal incubations were performed in triplicate.

UGT1A3 = biological target: T2, UGT1A3 (Homo sapiens, UniProt P35503); test: UGT1A3 inhibition in HLMs (chenodeoxycholic acid); assay type: in vitro ADME; details: average in triplicate, read-out: IC50, UGT 1A3
T2 construct: pooled HLMs (0.25 mg/mL); tissue XenoTech H2630; host or cells: pooled human liver microsomes, mixed gender
T2 sequence (P35503 29-534): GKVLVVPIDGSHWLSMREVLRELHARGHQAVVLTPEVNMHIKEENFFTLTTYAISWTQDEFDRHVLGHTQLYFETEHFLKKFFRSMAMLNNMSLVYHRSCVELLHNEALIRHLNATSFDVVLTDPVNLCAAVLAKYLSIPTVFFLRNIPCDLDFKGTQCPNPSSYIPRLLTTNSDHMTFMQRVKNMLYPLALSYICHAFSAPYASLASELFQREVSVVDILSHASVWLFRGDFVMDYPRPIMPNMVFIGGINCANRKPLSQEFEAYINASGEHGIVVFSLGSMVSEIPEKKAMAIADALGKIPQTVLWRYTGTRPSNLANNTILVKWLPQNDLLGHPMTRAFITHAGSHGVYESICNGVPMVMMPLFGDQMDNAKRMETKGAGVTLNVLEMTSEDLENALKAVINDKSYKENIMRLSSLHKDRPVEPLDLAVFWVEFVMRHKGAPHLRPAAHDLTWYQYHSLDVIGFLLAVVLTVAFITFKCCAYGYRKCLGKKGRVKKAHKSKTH
Description: (§1) The inhibitory potential of six lignans on six UGT activities was evaluated using the previously developed cocktail method with slight modifications. […] These substrates are known to be selective for each UGT isoforms.

UGT1A9 = biological target: T3, UGT1A9 (Homo sapiens, UniProt O60656); test: UGT1A9 inhibition in HLMs (mycophenolic acid); assay type: in vitro ADME; details: average in triplicate, read-out: IC50, UGT 1A9
T3 construct: pooled HLMs (0.25 mg/mL); tissue XenoTech H2630; host or cells: pooled human liver microsomes, mixed gender
T3 sequence (O60656 26-530): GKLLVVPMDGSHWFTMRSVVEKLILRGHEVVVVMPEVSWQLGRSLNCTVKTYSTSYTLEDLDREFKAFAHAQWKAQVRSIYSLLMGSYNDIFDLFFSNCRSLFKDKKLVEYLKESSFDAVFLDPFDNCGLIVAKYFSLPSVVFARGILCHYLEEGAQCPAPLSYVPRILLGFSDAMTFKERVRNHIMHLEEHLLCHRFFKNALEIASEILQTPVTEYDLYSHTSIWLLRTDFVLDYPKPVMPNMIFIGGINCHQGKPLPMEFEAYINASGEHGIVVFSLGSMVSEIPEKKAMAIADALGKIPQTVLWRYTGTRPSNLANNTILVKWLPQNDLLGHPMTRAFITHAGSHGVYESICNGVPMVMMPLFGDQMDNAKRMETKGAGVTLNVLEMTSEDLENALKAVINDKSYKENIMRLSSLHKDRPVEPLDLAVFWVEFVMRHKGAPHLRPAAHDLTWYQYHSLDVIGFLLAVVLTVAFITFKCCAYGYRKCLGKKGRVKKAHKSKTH
Description: as §1

UGT2B7 = biological target: T4, UGT2B7 (Homo sapiens, UniProt P16662); test: UGT2B7 inhibition in HLMs (naloxone); assay type: in vitro ADME; details: average in triplicate, read-out: IC50, UGT 2B6 (so in the source)
T4 construct: pooled HLMs (0.25 mg/mL); tissue XenoTech H2630; host or cells: pooled human liver microsomes, mixed gender
T4 sequence (P16662 24-529): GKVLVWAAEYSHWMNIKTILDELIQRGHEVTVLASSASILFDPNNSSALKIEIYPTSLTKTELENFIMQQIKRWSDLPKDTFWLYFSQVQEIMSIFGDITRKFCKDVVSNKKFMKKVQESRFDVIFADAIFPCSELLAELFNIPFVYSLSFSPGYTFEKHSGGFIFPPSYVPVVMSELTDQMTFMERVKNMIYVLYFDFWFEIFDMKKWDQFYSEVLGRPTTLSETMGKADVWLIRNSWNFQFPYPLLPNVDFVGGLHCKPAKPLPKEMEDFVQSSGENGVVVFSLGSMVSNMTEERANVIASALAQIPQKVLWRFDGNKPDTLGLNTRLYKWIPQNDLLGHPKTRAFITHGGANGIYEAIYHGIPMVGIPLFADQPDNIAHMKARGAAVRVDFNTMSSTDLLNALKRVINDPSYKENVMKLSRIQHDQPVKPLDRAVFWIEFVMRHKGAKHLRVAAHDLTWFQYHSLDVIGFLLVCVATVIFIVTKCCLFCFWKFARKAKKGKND
Description: as §1

CYP2C9 = CYP2C9 (Homo sapiens, UniProt P11712); test: CYP2C9 inhibition in HLMs (diclofenac)
Chain of CYP2C9 (P11712 whole entry): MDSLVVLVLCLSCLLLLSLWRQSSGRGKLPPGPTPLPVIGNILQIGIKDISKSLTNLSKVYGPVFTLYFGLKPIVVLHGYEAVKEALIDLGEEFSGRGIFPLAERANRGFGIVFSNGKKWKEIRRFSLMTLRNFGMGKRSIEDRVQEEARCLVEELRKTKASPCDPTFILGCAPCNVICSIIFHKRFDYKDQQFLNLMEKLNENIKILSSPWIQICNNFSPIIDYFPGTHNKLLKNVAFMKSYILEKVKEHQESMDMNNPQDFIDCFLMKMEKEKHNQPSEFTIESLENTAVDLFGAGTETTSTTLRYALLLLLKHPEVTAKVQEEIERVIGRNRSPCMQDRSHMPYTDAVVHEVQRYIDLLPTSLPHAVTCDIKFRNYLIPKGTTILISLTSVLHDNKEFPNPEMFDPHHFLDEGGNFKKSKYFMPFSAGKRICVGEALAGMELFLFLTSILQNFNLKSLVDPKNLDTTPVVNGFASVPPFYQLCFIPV
Description: (§2) Lignans were first dissolved in methanol. The final organic solvent concentration in the incubation media was ≤1.0% (v/v). The microsomal incubation was conducted using two cocktail sets containing non-interactive substrates: set A containing phenacetin, bupropion, amodiaquine, diclofenac, S-mephenytoin, and dextromethorphan as substrates for CYP1A2, CYP2B6, CYP2C8, CYP2C9, CYP2C19, and CYP2D6, respectively; and set B containing coumarin and chlorzoxazone as substrates for CYP2A6 and CYP2E1, and midazolam, nifedipine, and testosterone as substrates for CYP3A4 (Table 1). These substrates are known to be selective for each P450 isoforms. Incubation mixtures containing potassium phosphate buffer (0.1 M, pH 7.4), pooled HLMs (0.25 mg/mL), P450 probe substrate cocktails, and lignan (0~50 μM) were pre-incubated at 37 °C (5 min). Following pre-incubation, an NADPH generating system (1.3 mM NADP^+, 3.3 mM G6P, 1 unit/mL G6PDH, and 3.3 mM MgCl2) was added to initiate the reaction, and further incubated for 10 min. The reaction was quenched with 50 μL of cold acetonitrile containing internal standard (IS; 7 nM trimipramine). After centrifugation at 14,000 rpm (5 min at 4 °C), aliquots of supernatants were filtered through a 0.2 μm membrane filter and were measured by liquid chromatography-tandem mass spectrometry (LC-MS/MS). All microsomal incubations were performed in triplicate.

CYP2D6 = CYP2D6 (Homo sapiens, UniProt P10635); test: CYP2D6 inhibition in HLMs (dextromethorphan)
Chain of CYP2D6 (P10635 whole entry): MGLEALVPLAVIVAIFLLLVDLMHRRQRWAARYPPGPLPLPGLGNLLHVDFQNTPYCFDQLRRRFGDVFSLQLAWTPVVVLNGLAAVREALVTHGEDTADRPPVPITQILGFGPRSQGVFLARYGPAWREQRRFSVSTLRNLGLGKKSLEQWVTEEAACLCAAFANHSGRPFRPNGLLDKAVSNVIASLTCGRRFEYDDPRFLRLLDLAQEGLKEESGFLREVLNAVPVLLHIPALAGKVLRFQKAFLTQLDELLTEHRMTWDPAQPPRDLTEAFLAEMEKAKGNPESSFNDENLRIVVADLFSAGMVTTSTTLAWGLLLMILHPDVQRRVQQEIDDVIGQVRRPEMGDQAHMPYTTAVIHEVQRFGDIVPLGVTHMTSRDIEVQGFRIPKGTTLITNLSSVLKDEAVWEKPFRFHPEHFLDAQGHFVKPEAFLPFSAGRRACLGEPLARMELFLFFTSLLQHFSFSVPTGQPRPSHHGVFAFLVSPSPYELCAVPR
Description: as §2

[1] = IC50 TDI, 30 min pre-incubation with NADPH generating system
[2] = HLMs, 30 min pre-incubation with NADPH generating system, read-out: IC50 TDI, CYP1A2
[3] = HLMs, reversible inhibition, no 30 min NADPH pre-incubation, read-out: IC50 RI, CYP1A2

COc1cc2c(c(OC)c1OC)-c1c(cc(OC)c(OC)c1OC)C[C@](C)(O)[C@@H](C)C2 [Schisandrin, schisandrin]
IC50 (CYP1A2; IC50 RI, CYP1A2, HLMs, reversible inhibition, no 30 min NADPH pre-incubation): 4 µM
IC50 (CYP1A2; IC50 TDI, CYP1A2, HLMs, 30 min pre-incubation with NADPH generating system): > 50 µM
IC50 (UGT1A3): > 50 µM
IC50 (UGT1A9): > 50 µM
IC50 (UGT2B7): > 50 µM
IC50 (CYP2C9; IC50 RI, reversible inhibition): 43 µM
IC50 (CYP2C9; [1]): > 50 µM
IC50 (CYP2D6; IC50 RI, reversible inhibition): 40.2 µM
IC50 (CYP2D6; [1]): > 50 µM

COc1c2c(cc3c1-c1c(cc4c(c1OC)OCO4)C[C@H](C)[C@H](C)C3)OCO2 [Wuweizisu C, wuweizisu C]
IC50 (CYP1A2; [2]): 22.4 µM
IC50 (CYP1A2; [3]): 25.6 µM
IC50 (UGT1A3): > 50 µM
IC50 (UGT1A9): > 50 µM
IC50 (UGT2B7): > 50 µM
IC50 (CYP2C9; IC50 RI, reversible inhibition): 8.9 µM
IC50 (CYP2C9; [1]): 3.6 µM
IC50 (CYP2D6; IC50 RI, reversible inhibition): 20.3 µM
IC50 (CYP2D6; [1]): 28.2 µM

COc1cc2c(c(OC)c1OC)-c1c(cc3c(c1OC)OCO3)C[C@H](C)[C@](C)(O)[C@H]2OC(=O)c1ccccc1 [Gomisin C, gomisin C]
IC50 (CYP1A2; [2]): > 50 µM
IC50 (CYP1A2; [3]): > 50 µM
IC50 (UGT1A3): 15 µM
IC50 (UGT1A9): > 50 µM
IC50 (UGT2B7): > 50 µM
IC50 (CYP2C9; IC50 RI, reversible inhibition): > 50 µM
IC50 (CYP2C9; [1]): > 50 µM
IC50 (CYP2D6; IC50 RI, reversible inhibition): > 50 µM
IC50 (CYP2D6; [1]): > 50 µM

COc1cc2c(c(OC)c1OC)-c1c(cc3c(c1OC)OCO3)C[C@H](C)[C@H](C)C2 [Gomisin N, gomisin N]
IC50 (CYP1A2; [2]): > 50 µM
IC50 (CYP1A2; [3]): > 50 µM
IC50 (UGT1A3): 26.9 µM
IC50 (UGT1A9): > 50 µM
IC50 (UGT2B7): > 50 µM
IC50 (CYP2C9; IC50 RI, reversible inhibition): 36.2 µM
IC50 (CYP2C9; [1]): 10.9 µM
IC50 (CYP2D6; IC50 RI, reversible inhibition): 42 µM
IC50 (CYP2D6; [1]): > 50 µM

Source: publication PMC8000448, “Inhibitory Effects of Schisandra Lignans on Cytochrome P450s and Uridine 5′-Diphospho-Glucuronosyl Transferases in Human Liver Microsomes” (Pharmaceutics, 2021)
